In patent publication US20030130264A1 (priority 2001, published 2003):

Test system: recombinant human cytomegalovirus (HCMV)
Experiment: microbe, parasite or virus in culture
Format: cell-based
Conditions: Human betaherpesvirus 5, HFF
From the text: For the assessment of activity against human CMV, a method was used which is similar to that described in Kohler, et al. (1994) J. Virol. 68:6589-6597. Briefly, a recombinant human cytomegalovirus (HCMV) was made containing a marker gene (luciferase) under the control of the promoter for the late 28 kDa viral structural phosphoprotein pp28. Human foreskin fibroblast (HFF) cells were infected with the recombinant HCMV virus (moi (multiplicity of infection) 5), placed into 96-well plates, and cultured under standard cell-culture conditions. […] The level of luciferase expression was measured 24 h after treatment with the test compounds. […] As an additional control, the cytotoxicity of test compounds on untreated HFF cells was also evaluated in cultured cell growth experiments.

| Structure (SMILES) | IC50 |
| --- | --- |
| CCC(Nc1nc(C)c([N+](=O)[O-])c(-n2ccnc2)n1)c1ccccc1 (centres unmarked) [2-(1-phenyl-1-propylamino)-4-(imidazol-1-yl)-6-methyl-5-nitropyrimidine] | > 500 nM |
| Cc1nc(NC2Cc3ccccc3C2)nc(-n2ccnc2C)c1[N+](=O)[O-] [2-(2-indanamino)-4-(2-methylimidazoyl)-6-methyl-5-nitropyrimidine] | > 500 nM |
| Cc1nc(NC2Cc3ccccc3C2)nc(-n2ccnc2)c1[N+](=O)[O-] [2-(2-indanamino)-4-imidazolyl-6-methyl-5-nitropyrimidine] | > 500 nM |
| CCc1nccn1-c1nc(NC2CCc3c(F)cc(F)cc32)nc(C)c1[N+](=O)[O-] (centres unmarked) [2-(4,6-difluoro-1-indanamino)-4-(2-ethylimidazolyl)-6-methyl-5-nitropyrimidine] | 100 to 500 nM |
| Cc1nc(NC2CCc3c(F)cc(F)cc32)nc(-n2ccnc2C)c1[N+](=O)[O-] (centres unmarked) [2-(4,6-difluoro-1-indanamino)-4-(2-methylimidazolyl)-6-methyl-5-nitropyrimidine] | 100 to 500 nM |
| Cc1nc(NC2CCc3c(F)cc(F)cc32)nc(-n2ccnc2)c1[N+](=O)[O-] (centres unmarked) [2-(4,6-difluoro-1-indanamino)-4-imidazolyl-6-methyl-5-nitropyrimidine] | 100 to 500 nM |
| Cc1nc(NCc2ccc(C(F)(F)F)cc2)nc(-n2ccnc2C)c1[N+](=O)[O-] [2-(4-trifluoromethylbenzylamino)-4-(2-methylimidazol-1-yl)-6-methyl-5-nitropyrimidine] | 100 to 500 nM |
| CCCCN(Cc1ccccc1)c1nc(C)c([N+](=O)[O-])c(-n2ccnc2C)n1 [Compound m] | 2000 nM |
| Cc1nc(N(Cc2ccccc2)Cc2ccccc2)nc(-n2ccnc2C)c1[N+](=O)[O-] [Compound o] | 2000 nM |
| Cc1nc(N2CCC(C)CC2)nc(-n2ccnc2C)c1[N+](=O)[O-] [Compound p] | 300 nM |
| CCCCN(CC1CC1)c1nc(C)c([N+](=O)[O-])c(-n2ccnc2C)n1 [Compound q] | 3000 nM |
| CCc1nc(N(C)c2ccccc2)nc(-n2ccnc2C)c1[N+](=O)[O-] [c] | 100 nM |
| Cc1nc(-n2ccnc2C)nc(N(C)Cc2ccccc2)c1[N+](=O)[O-] [f] | 6000 nM |
| Cc1nc(N(C)c2ccc(Cl)cc2)nc(-n2ccnc2C)c1[N+](=O)[O-] [g] | 800 nM |
| Cc1nccn1-c1nc(N(C)c2ccccc2)nc(C(C)C)c1[N+](=O)[O-] [h] | 300 nM |
| CCN(CC)c1nc(C)c([N+](=O)[O-])c(-n2ccnc2C)n1 [k] | 1000 nM |
| Cc1cn(-c2nc(N(C)c3ccccc3)nc(C)c2[N+](=O)[O-])cn1 [t] | 10000 nM |
| CCCOc1nc(C)c([N+](=O)[O-])c(-n2ccnc2C)n1 [x, 2-(propyloxy)-4-(2-methylimidazol-1yl)-6-methyl-5-nitropyrimidine] | > 500 nM |

Test system: not given
Experiment: not given
Conditions: not given

| Structure (SMILES) | melting point |
| --- | --- |
| Cc1nc(NC2Cc3ccccc3C2)nc(-n2ccnc2C)c1[N+](=O)[O-].Cl | 184 to 185 °C |
| CC[C@H]1CCCCC1Nc1nc(C)c([N+](=O)[O-])c(-n2ccnc2)n1 (some centres unmarked) | 123 to 124 °C |
